Test results taken from US20120107385A1, “METHOD OF TREATING CONDITIONS ASSOCIATED WITH OVERACTIVE BLADDER” (priority 2010, published 2012).

Assay: Plasma oxybutynin and N-desethyloxybutynin following oral and intravaginal administration in dogs (14 day study)
Description: A study was conducted to determine the levels of oxybutynin and its active metabolite, N-desethyloxybutynin, present in plasma following oral and intravaginal administration of oxybutynin in dogs.
A 14 day study was conducted, where 8 young adult females were randomly assigned to 4 groups of 2 dogs each.

## CCN(CC)CC#CCOC(=O)C(O)(c1ccccc1)C1CCCCC1 (centres unmarked) [oxybutynin, 4-diethylaminobut-2-ynyl2-cyclohexyl-2-hydroxy-2-phenyl-ethanoate]
Oral 10 mg/day
  plasma level of oxybutynin at 8 h or more after oral dosing: ≤ 2.75 ng/mL
plasma
  time after dosing at which Cmax of oxybutynin was achieved: 3 h
